Source: patent publication US11208422B2, “Substituted bridged diazepane derivatives and use thereof as TASK-1 and TASK-3 inhibitors” (Bayer Pharma Aktiengesellschaft, priority 2017, dated 2021)

Legend:
[1] = target: recombinant TASK-3 (Homo sapiens (Human), UniProt Q9NPC2); assay: Inhibition of recombinant TASK-3 in stably transfected CHO cells (KCl-induced depolarization, voltage-sensitive dye, FLIPR); format: cell-based; conditions: depolarization induced by 40 mM potassium chloride, some mean values from multiple determinations
Sequence of recombinant TASK-3 (Q9NPC2 whole entry): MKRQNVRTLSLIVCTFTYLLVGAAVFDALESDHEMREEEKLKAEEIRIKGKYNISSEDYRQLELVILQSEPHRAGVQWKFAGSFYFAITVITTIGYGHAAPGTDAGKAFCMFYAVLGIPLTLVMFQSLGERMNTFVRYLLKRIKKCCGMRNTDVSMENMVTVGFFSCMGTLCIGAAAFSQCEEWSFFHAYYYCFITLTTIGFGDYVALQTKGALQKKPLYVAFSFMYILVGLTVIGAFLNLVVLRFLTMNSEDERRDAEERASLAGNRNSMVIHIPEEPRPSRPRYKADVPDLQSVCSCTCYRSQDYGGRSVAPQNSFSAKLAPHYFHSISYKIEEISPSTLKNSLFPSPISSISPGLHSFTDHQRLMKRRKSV
Description: (§1) The compounds of the invention were tested here with administration of 40 mM of potassium chloride in the presence of a voltage-sensitive dye using the method described in detail in the following references [Whiteaker et al., Validation of FLIPR membrane potential dye for high-throughput screening of potassium channel modulators, J. Biomol. Screen. 6 (5), 305-312 (2001); Molecular Devices FLIPR Application Note: Measuring membrane potential using the FLIPR® membrane potential assay kit on Fluorometric Imaging Plate Reader (FLIPR®) systems, http://www.moleculardevices.com/reagents-supplies/assay-kits/ion-channels/flipr-membrane-potential-assay-kits]. The activity of the test substances was determined as their ability to inhibit a depolarization induced in the recombinant cells by 40 mM potassium chloride. The concentration which can block half of this depolarization is referred to as IC50.

[2] = target: recombinant TASK-1 (Homo sapiens (Human), UniProt O14649); assay: Inhibition of recombinant TASK-1 in stably transfected CHO cells (KCl-induced depolarization, voltage-sensitive dye, FLIPR); format: cell-based; conditions: depolarization induced by 40 mM potassium chloride, some mean values from multiple determinations
Sequence of recombinant TASK-1 (O14649 whole entry): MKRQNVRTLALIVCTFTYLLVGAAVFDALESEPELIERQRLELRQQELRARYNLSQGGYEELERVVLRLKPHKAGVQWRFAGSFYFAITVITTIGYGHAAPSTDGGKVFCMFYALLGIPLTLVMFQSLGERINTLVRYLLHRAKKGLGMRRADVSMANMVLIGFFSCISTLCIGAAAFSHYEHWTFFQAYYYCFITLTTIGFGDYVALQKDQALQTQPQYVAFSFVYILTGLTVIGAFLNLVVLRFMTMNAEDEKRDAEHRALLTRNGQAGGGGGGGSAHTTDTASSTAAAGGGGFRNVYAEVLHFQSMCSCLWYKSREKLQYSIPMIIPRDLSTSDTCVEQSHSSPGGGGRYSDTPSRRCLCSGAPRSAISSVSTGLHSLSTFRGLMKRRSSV
Description: as §1

SMILES | IC50 [1] [nM] | IC50 [2] [nM]
COc1cccc(C(=O)N2C3CCC2CN(Cc2c(-c4ccc(Cl)cc4)nc4ccccn24)CC3)n1 (single isomer, unassigned) [Example 90, [3-{[2-(4-Chlorophenyl)imidazo[1,2-a]pyridin-3-yl]methyl}-3,9-diazabicyclo[4.2.1]non-9-yl](6-methoxypyridin-2-yl)methanone] | 2.8 | 43
COc1cccc(C(=O)N2C3CCC2CN(Cc2c(-c4ccc(Cl)cc4)nc4ccccn24)CC3)n1 (single isomer, unassigned) [Example 91, [3-{[2-(4-Chlorophenyl)imidazo[1,2-a]pyridin-3-yl]methyl}-3,9-diazabicyclo[4.2.1]non-9-yl](6-methoxypyridin-2-yl)methanone] | 5.5 | 290
COc1ccc(F)c(C(=O)N2CC3CCC2CN(Cc2c(-c4ccc(Cl)cc4)nc4ccccn24)C3)n1 (single isomer, unassigned) [Example 94, [3-{[2-(4-chlorophenyl)imidazo[1,2-a]pyridin-3-yl]methyl}-3,6-diazabicyclo[3.2.2]non-6-yl](3-fluoro-6-methoxypyridin-2-yl)methanone] | 110 | 3200
COc1cccc(C(=O)N2CC3CCC2CN(Cc2c(-c4ccc(Cl)cc4)nc4ccccn24)C3)n1 (single isomer, unassigned) [Example 95, [3-{[2-(4-chlorophenyl)imidazo[1,2-a]pyridin-3-yl]methyl}-3,6-diazabicyclo[3.2.2]non-6-yl](6-methoxypyridin-2-yl)methanone] | 710 | 4900
O=C(c1ccccc1F)N1C2CCC1CN(Cc1c(-c3ccc(Cl)cc3)nc3ncccn13)CC2 (single isomer, unassigned; (-)) [Example 81, (−)-[3-{[2-(4-chlorophenyl)imidazo[1,2-a]pyrimidin-3-yl]methyl}-3,9-diazabicyclo[4.2.1]non-9-yl](2-fluorophenyl)methanone] | 9.2 | 590
COc1cccc(C(=O)N2CCC3CCC2CN3Cc2c(-c3ccc(Cl)cn3)nc3ccccn23)n1 (stereo not drawn) [Example 18] | 167 | 1600
COc1ccc(F)c(C(=O)N2CCC3CCC2CN3Cc2c(-c3ccc(Cl)cn3)nc3ccccn23)n1 (stereo not drawn) [Example 19] | 580 | 13500
COc1ccc(Cl)c(C(=O)N2CCC3CCC2CN3Cc2c(-c3ccc(Cl)cn3)nc3ccccn23)n1 (stereo not drawn) [Example 20] | 197 | 3350
COc1cccc(C(=O)N2CCC3CCC2CN3Cc2c(-c3ccc(Cl)cc3)nc3ccccn23)n1 (stereo not drawn) [Example 26] | 6.9 | 830
COc1ccc(F)c(C(=O)N2CCC3CCC2CN3Cc2c(-c3ccc(Cl)cc3)nc3ccccn23)n1 (stereo not drawn) [Example 27] | 3 | 150
COc1ccc(Cl)c(C(=O)N2CCC3CCC2CN3Cc2c(-c3ccc(Cl)cc3)nc3ccccn23)n1 (stereo not drawn) [Example 28] | 5.6 | 280
O=C(c1ccccc1F)N1CCC2CCC1CN2Cc1c(-c2ccc(Cl)cn2)nc2ccccn12 (stereo not drawn) [Example 30] | 220 | 2300
O=C(c1ccccc1F)N1CCC2CCC1CN2Cc1c(-c2ccc(Cl)cn2)nc2ncccn12 (stereo not drawn) [Example 31] | 47 | 910
O=C(c1ccccc1F)N1CCC2CCC1CN2Cc1c(-c2ccc(Cl)cc2)nc2ccccn12 (stereo not drawn) [Example 36] | 1000 | 30000
COc1cccc(C(=O)N2CCC3CCC2CN3Cc2c(-c3ccc(Cl)cc3)nc3ccccn23)n1 (stereo not drawn) [Example 37] | 1000 | 30000
COc1ccc(F)c(C(=O)N2CCC3CCC2CN3Cc2c(-c3ccc(Cl)cc3)nc3ccccn23)n1 (stereo not drawn) [Example 38] | 4 | 250
COc1ccc(Cl)c(C(=O)N2CCC3CCC2CN3Cc2c(-c3ccc(Cl)cc3)nc3ccccn23)n1 (stereo not drawn) [Example 39] | 13 | 370
COc1cccc(C(=O)N2CCC3CCC2CN3Cc2c(-c3ccc(C(C)C)cc3)nc3ncccn23)n1 (stereo not drawn) [Example 41] | 160 | 2200
COc1ccc(Cl)c(C(=O)N2CCC3CCC2CN3Cc2c(-c3ccc(C(C)C)cc3)nc3ncccn23)n1 (stereo not drawn) [Example 43] | 250 | 2500
CC(C)c1ccc(-c2nc3ncccn3c2CN2CC3CCC2CCN3C(=O)c2cccc(OC(F)F)n2)cc1 (stereo not drawn) [Example 45] | 170 | 2900
CC(C)c1ccc(-c2nc3ncccn3c2CN2CC3CCC2CCN3C(=O)c2ccccc2F)cc1 (stereo not drawn) [Example 46] | 1000 | 16000
CC(C)c1ccc(-c2nc3ncccn3c2CN2CC3CCC2CCN3C(=O)c2ccccc2F)cc1 (stereo not drawn) [Example 47] | 180 | 3100
COc1cccc(C(=O)N2CCC3CCC2CN3Cc2c(-c3ccc(C(C)C)cc3)nc3ncccn23)n1 (stereo not drawn) [Example 48] | 430 | 12000
CC(C)c1ccc(-c2nc3ncccn3c2CN2CC3CCC2CCN3C(=O)c2cccc(OC(F)F)n2)cc1 (stereo not drawn) [Example 51] | 110 | 1100
CC(C)c1ccc(-c2nc3ncccn3c2CN2CC3CCC2CCN3C(=O)C2CCCC2)cc1 (stereo not drawn) [Example 52] | 140 | 3800
COc1ccc(F)c(C(=O)N2CCC3CCC(C2)N3Cc2c(-c3ccc(C(C)C)cc3)nc3ncccn23)n1 (stereo not drawn) [Example 53] | 380 | 1300

Continued, values first:

IC50 [1] [nM] | IC50 [2] [nM] | SMILES
140 | 18000 | COc1cccc(C(=O)N2CCC3CCC2CN3Cc2c(-c3ccc(Cl)cc3)nc3ncccn23)n1 (stereo not drawn) [Example 21]
370 | 27000 | O=C(c1ccccc1F)N1CCC2CCC1CN2Cc1c(-c2ccc(Cl)cc2)nc2ncccn12 (stereo not drawn) [Example 22]
24 | 3000 | COc1ccc(Cl)c(C(=O)N2CCC3CCC2CN3Cc2c(-c3ccc(Cl)cc3)nc3ncccn23)n1 (stereo not drawn) [Example 23]
24 | 3100 | Nc1nonc1C(=O)N1CCC2CCC1CN2Cc1c(-c2ccc(Cl)cc2)nc2ncccn12 (stereo not drawn) [Example 24]
11 | 1100 | O=C(c1ccccc1F)N1CCC2CCC1CN2Cc1c(-c2ccc(Cl)cc2)nc2ncccn12 (stereo not drawn) [Example 25]
4.4 | 660 | Nc1nonc1C(=O)N1CCC2CCC1CN2Cc1c(-c2ccc(Cl)cc2)nc2ccccn12 (stereo not drawn) [Example 29]
4.1 | 130 | COc1cccc(C(=O)N2CCC3CCC2CN3Cc2c(-c3ccc(Cl)cc3)nc3ncccn23)n1 (stereo not drawn) [Example 32]
110 | 2600 | COc1ccc(F)c(C(=O)N2CCC3CCC2CN3Cc2c(-c3ccc(Cl)cc3)nc3ncccn23)n1 (stereo not drawn) [Example 33]
200 | 4100 | COc1ccc(Cl)c(C(=O)N2CCC3CCC2CN3Cc2c(-c3ccc(Cl)cc3)nc3ncccn23)n1 (stereo not drawn) [Example 34]
500 | 24000 | Nc1nonc1C(=O)N1CCC2CCC1CN2Cc1c(-c2ccc(Cl)cc2)nc2ncccn12 (stereo not drawn) [Example 35]
29 | 3300 | Nc1nonc1C(=O)N1CCC2CCC1CN2Cc1c(-c2ccc(Cl)cc2)nc2ccccn12 (stereo not drawn) [Example 40]
540 | 5500 | COc1ccc(F)c(C(=O)N2CCC3CCC2CN3Cc2c(-c3ccc(C(C)C)cc3)nc3ncccn23)n1 (stereo not drawn) [Example 49]
440 | 2500 | COc1ccc(Cl)c(C(=O)N2CCC3CCC2CN3Cc2c(-c3ccc(C(C)C)cc3)nc3ncccn23)n1 (stereo not drawn) [Example 50]
